Source: patent US20230381133A1, “TAU AND AMYLOID PROTEIN LOWERING COMPOUNDS AND METHODS OF USE” (Qatar Foundation for Education, Science and Community …, priority 2022, published 2023)

What was measured:
[1] = tested on: corticobasal degeneration patient; assay: Treatment of a corticobasal degeneration patient; format: in vivo; settings: compared to a non-treated patient
Procedure: A therapeutically effective amount of the TA analog 2-(2-cyanophenylthio) benzoic acid is administered to a corticobasal degeneration patient.

[2] = tested on: Down's Syndrome patient; assay: Treatment of a Down's Syndrome patient; format: in vivo; settings: compared to a non-treated patient
Procedure: A therapeutically effective amount of the TA analog 2-(2-cyanophenylthio) benzoic acid is administered to a Down's Syndrome patient.

[3] = tested on: bvFTLD patient; assay: Treatment of a Behavioral Variant Frontotemporal Dementia (bvFTLD) patient; format: in vivo; settings: compared to a non-treated patient
Procedure: A therapeutically effective amount of the TA analog 2-(2-cyanophenylthio) benzoic acid is administered to a bvFTLD patient.

[4] = tested on: TBI patient; assay: Treatment of a Traumatic Brain Injury (TBI) patient; format: in vivo; settings: compared to a non-treated patient
Procedure: A therapeutically effective amount of the TA analog 2-(2-cyanophenylthio) benzoic acid is administered to a TBI patient.

[5] = tested on: AD patient; assay: Treatment of an AD patient; format: in vivo; settings: compared to a non-treated patient
Procedure: A therapeutically effective amount of the TA analog 2-(2-cyanophenylthio) benzoic acid is administered to an AD patient.

[6] = tested on: PSP patient; assay: Treatment of a Progressive Supranuclear Palsy (PSP) patient; format: in vivo; settings: compared to a non-treated patient
Procedure: A therapeutically effective amount of the TA analog 2-(2-cyanophenylthio) benzoic acid is administered to a PSP patient.

[7] = tested on: CTE patient; assay: Treatment of a Chronic Traumatic Encephalopathy (CTE) patient; format: in vivo; settings: compared to a non-treated patient
Procedure: A therapeutically effective amount of the TA analog 2-(2-cyanophenylthio) benzoic acid is administered to a CTE patient.

[8] = tested on: Pick disease patient; assay: Treatment of a Pick disease patient; format: in vivo; settings: compared to a non-treated patient
Procedure: A therapeutically effective amount of the TA analog 2-(2-cyanophenylthio) benzoic acid is administered to a Pick disease patient.

[9] = tested on: FTLD patient; assay: Treatment of a Frontotemporal Lobar Degeneration (FTLD) patient; format: in vivo; settings: compared to a non-treated patient
Procedure: A therapeutically effective amount of the TA analog 2-(2-cyanophenylthio) benzoic acid is administered to an FTLD patient.

[10] = background statement; cited from earlier work
[11] = biological target: SP1 (Homo sapiens, UniProt P08047); settings: background statement; cited from earlier work
Sequence of SP1 (P08047 whole entry): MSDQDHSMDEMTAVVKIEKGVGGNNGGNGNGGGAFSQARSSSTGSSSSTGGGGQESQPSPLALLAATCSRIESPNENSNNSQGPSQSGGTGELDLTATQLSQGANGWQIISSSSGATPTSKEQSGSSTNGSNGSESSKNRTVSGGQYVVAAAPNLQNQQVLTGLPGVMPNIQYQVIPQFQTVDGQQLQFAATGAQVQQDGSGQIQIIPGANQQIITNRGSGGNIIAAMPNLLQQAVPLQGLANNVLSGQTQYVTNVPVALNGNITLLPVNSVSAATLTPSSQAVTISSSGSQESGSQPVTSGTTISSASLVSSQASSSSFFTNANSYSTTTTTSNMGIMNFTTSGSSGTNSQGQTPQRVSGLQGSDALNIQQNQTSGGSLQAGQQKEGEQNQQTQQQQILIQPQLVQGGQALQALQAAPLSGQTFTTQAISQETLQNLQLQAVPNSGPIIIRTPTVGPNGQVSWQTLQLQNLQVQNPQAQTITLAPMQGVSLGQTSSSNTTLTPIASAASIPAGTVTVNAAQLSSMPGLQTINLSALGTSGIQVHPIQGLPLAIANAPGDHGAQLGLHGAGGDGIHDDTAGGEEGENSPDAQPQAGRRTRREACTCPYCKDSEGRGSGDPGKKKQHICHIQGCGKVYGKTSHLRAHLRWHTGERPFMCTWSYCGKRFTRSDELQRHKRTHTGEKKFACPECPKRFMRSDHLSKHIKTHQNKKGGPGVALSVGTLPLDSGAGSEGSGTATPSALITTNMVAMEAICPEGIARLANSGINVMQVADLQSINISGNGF

| Structure (SMILES) | patient's symptoms [1] | patient's symptoms [2] | patient's symptoms [3] | patient's symptoms [4] | patient's symptoms [5] | patient's symptoms [6] | patient's symptoms [7] | patient's symptoms [8] | patient's symptoms [9] | ability to cross the blood brain barrier (BBB) [10] | interaction with SP1 [11] |
| --- | --- | --- | --- | --- | --- | --- | --- | --- | --- | --- | --- |
| N#Cc1ccccc1Sc1ccccc1C(=O)O [2-(2-cyanophenylthio) benzoic acid, 2-(2-cyanophenylthio)benzoic acid] | symptoms are reduced | symptoms are reduced | symptoms are reduced | symptoms are reduced | symptoms are reduced | symptoms are reduced | symptoms are reduced | symptoms are reduced | symptoms are reduced | – | – |
| Cc1c(Cl)cccc1Nc1ccccc1C(=O)O [TA, Tolfenamic Acid] | – | – | – | – | – | – | – | – | – | cross the blood brain barrier | interact directly with SP1 |
